These results are taken from patent US10202371B2, “Oxazolidin-2-one-pyrimidine derivatives and the use thereof as phosphatidylinositol-3-kinase inhibitors” (Novartis AG, priority 2012, dated 2019).

A short description of data set [1]: Photostability in light stability chamber. As to conditions: 1.0 mg/ml in ethanol, 19620 kJ/m^2 over 13 h, 15° C., UPLC 254 nm. The class given is physicochemical. How it is done:
Samples investigated for light stability were treated in a light stability chamber (Atlas CPS+, Serial Number 0704013). Solutions of 1.0 mg/ml in ethanol were prepared for each molecule and aliquots of 0.5 mL were dispensed into suitable micro tubes. All measurements were done in duplicate and compared to a reference wrapped in aluminium foil during light exposure. Solutions were exposed to 19620 kJ/m^2 over 13 h. Samples were kept at 15° C. during the experiment. […] The peak areas were automatically integrated, and the degradation percentage calculated as the difference between the corresponding peak area percentage of the reference sample and the average peak area percentage of the exposed samples (duplicate).

A further data set deals with human PI3Kβ (Homo sapiens (Human), UniProt P42338). The experiment in a line: Biochemical assay PI3Kbeta (KinaseGlo luminescence). Conditions: 1 μM ATP, read-out: PI3Kb/IC50. The text has this: Cancer Ther. accepted). […] (L-alpha-phosphatidylinositol (PI), Liver, Bovine) were obtained from Avanti Polar Lipid (Cat. […] (Avanti, Cat. No. 840046X) or L-α-phosphatidylinositol (PI) was obtained from Avanti Polar Lipid (Cat. […] Luminescence is a well established readout to determine ATP concentrations and can thus be used to follow the activity of many kinases regardless of their substrate. The Kinase Glo Luminescent Kinase Assay (Promega, Madison/WI, USA) is a homogeneous HTS method of measuring kinase activity by quantifying the amount of ATP remaining in solution following a kinase reaction. 50 nL of compound dilutions were dispensed onto black 384-well low volume Non Binding Styrene (NBS) plates (Costar Cat. No. […] L-α-phosphatidylinositol (PI), provided as 10 mg/ml solution in methanol, was transferred into a glass tube and dried under nitrogen beam. […] NVP-BGT226 was used as a reference compound and included in all assay plates in the form of 16 dilution points in duplicate. […] All fits were performed with the program XLfit4 (ID Business Solutions, Guildford, UK).
A general note: In Kinase-Glo more light means more ATP remaining.

For data set [2], the target named is mTOR (TSC1-/- MEFs cells) (Mus musculus (Mouse), UniProt Q9JLN9). Briefly: Cellular assay mTOR, phospho-T389 S6K1 SureFire in TSC1-/- MEF cells. Conditions: read-out: mTOR TS6K(T389)_TSC1ko/ IC50. The class given is cell-based. The source says: A cell based assay (384-well format) was developed for determination of compound effects on cellular mTOR activity in MEF (mouse embryo fibrobrasts) cells derived from mice lacking TSC1 (Tuberosclerosis Complex1) a potent suppressor of mTOR activity. Due to lack of TSC1, mTOR is constitutively activated resulting in permanent phoshorylation of Thr 389 of S6 kinase 1 (S6K1) which is one of the downstream targets of mTOR.
Using a SureFire Kit that enables to determine the phosphorylation of Thr389 on the S6K1 an assay was developed, validated and implemented in the Alpha-Screen format that allows the quantitative determination of phospho-T389 of S6K1 in cell lysates. […] These were in agreement with those values obtained with the biochemical mTOR ATP-binding assay enabling a quantitative comparison of potency of mTOR inhibitors.
TSC1−/− MEFs cells (Kwiatkowski, D. J., Zhang, H., Bandura, J. L., Heiberger, K. M., Glogauer, M., el-Hashemite, N., and Onda, H. (2002) Hum. Mol. Genet. 11, 525-534) were cultured in DMEM high glucose medium supplemented with 10% FBS (Invitrogen), 2 mM Glutamine and 1% (w/v) Penicillin/Streptomycin at 37° C., 5% CO2.
The SureFire kit for determination of P70S6kinase phosphorylation was purchased from Perkin Elmer (p70S6K p-T389, #TGR70S50K) and the assay was performed according to the instructions of the supplier and according to the generic method for SureFire assays. Shortly, 5 μL cell lysate per well were transferred to 384-well white proxy-plates (for luminescent readout) and mixed with […] and […] (final volume: 12 μL). After 3 h incubation in the dark at RT luminescence was read with the Envision Reader (Perkin Elmer). Untreated cells were used as control (high control) and cells treated with 3 μM BEZ235 were used as low control. The assay window between the signals obtained for the high and the low controls were defined as 100% and compound effects were expressed as percent inhibition. IC50 values were calculated from the dose response curves by graphical extrapolation.

Structures are written as SMILES.

human PI3Kβ, sequence (P42338 2-1070): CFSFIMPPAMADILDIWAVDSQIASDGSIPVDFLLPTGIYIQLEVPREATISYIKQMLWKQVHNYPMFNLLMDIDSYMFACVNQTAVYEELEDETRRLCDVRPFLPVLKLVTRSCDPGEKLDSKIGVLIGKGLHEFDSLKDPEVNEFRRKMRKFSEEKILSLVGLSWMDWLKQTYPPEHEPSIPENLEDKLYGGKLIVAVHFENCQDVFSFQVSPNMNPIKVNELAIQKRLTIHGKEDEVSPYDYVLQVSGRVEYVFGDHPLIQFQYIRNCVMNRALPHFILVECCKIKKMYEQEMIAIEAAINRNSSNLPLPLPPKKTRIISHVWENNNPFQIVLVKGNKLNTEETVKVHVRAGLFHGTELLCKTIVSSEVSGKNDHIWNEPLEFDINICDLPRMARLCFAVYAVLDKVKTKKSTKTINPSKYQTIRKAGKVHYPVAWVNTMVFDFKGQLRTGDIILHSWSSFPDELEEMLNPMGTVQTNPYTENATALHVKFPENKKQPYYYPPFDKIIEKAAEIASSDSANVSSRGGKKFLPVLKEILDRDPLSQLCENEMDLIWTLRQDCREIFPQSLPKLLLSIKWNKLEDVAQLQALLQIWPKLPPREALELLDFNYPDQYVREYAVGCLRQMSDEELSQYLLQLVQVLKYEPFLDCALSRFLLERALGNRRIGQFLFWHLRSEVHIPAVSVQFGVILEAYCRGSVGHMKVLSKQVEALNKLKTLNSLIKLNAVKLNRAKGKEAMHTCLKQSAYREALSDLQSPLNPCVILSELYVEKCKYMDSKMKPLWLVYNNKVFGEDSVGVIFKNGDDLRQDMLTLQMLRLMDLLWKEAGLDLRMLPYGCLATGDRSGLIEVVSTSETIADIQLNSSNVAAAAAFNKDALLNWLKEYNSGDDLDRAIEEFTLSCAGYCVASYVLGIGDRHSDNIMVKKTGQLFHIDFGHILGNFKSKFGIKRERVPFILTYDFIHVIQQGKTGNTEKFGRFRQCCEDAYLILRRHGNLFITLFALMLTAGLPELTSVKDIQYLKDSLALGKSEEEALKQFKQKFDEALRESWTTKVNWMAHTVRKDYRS

Regarding `CC[C@H]1[C@H](c2ccc(OC)cc2)OC(=O)N1c1cc(-c2cnc(N)nc2C(F)(F)F)nc(N2CCOCC2)n1` (relative stereo) [Example 2, (4S*,5S*)-3-(2′-amino-2-morpholino-4′-(trifluoromethyl)-[4,5′-bipyrimidin]-6-yl)-4-ethyl-5-(4-methoxyphenyl)oxazolidin-2-one], the “% degradation in photostability assay (average)” value (from here on “% degradation”) in data set [1] came to 3%. Also, the IC50 on human PI3Kβ is 96 nM.
For the molecule `C[C@H]1[C@H](c2nccs2)OC(=O)N1c1cc(-c2cnc(N)nc2C(F)(F)F)nc(N2CCOCC2)n1` [Example 1, (4S,5R)-3-(2′-Amino-2-morpholin-4-yl-4′-trifluoromethyl-[4,5′]bipyrimidinyl-6-yl)-4-methyl-5-thiazol-2-yl-oxazolidin-2-one], the “% degradation” value in data set [1] is recorded as 8%. The values for the IC50 (in data set [2]; at human PI3Kβ) were 243 nM and 9 nM, respectively.
For the molecule `COc1ccc([C@@H]2OC(=O)N(c3cc(-c4cnc(N)nc4C(F)(F)F)nc(N4CCOCC4)n3)[C@H]2CO)cc1` [Example 3, (4S,5S)-3-(2′-Amino-2-morpholino-4′-(trifluoromethyl)-[4,5′-bipyrimidin]-6-yl)-4-(hydroxymethyl)-5-(4-methoxyphenyl)oxazolidin-2-one], the “% degradation” value in data set [1] was 3%. In addition, the IC50 was 159 nM in data set [2] and 7 nM on human PI3Kβ.
Regarding `C[C@H]1[C@H](c2ccccc2)OC(=O)N1c1cc(-c2cnc(N)nc2C(F)(F)F)nc(N2CCOCC2)n1` [Example 5], the “% degradation” value in data set [1] stood at 17%. In addition, in data set [2], the IC50 came out at 371 nM.
As to `CCC1C(c2cccnc2)OC(=O)N1c1cc(-c2cnc(N)nc2C(F)(F)F)nc(N2CCOCC2)n1` (centres unmarked) [Example 8], on human PI3Kβ, the IC50 was found to be 67 nM.
For the molecule `Nc1ncc(-c2cc(N3C(=O)O[C@@H](c4ccccc4)[C@@H]3CO)nc(N3CCOCC3)n2)c(C(F)(F)F)n1` [Example 10], the “% degradation” value in data set [1] is on record as 7%. In addition, the IC50 in data set [2] is 221 nM; on human PI3Kβ it was 5 nM.
`C[C@H]1[C@@H](c2nccs2)OC(=O)N1c1cc(-c2cnc(N)nc2C(F)(F)F)nc(N2CCOCC2)n1` [Example 11]: the results for the IC50 (in data set [2]; on human PI3Kβ) were 747 nM and 10 nM, respectively.
Consider `COCCOc1ccc([C@@H]2OC(=O)N(c3cc(-c4cnc(N)nc4C(F)(F)F)nc(N4CCOCC4)n3)[C@H]2CO)cc1` [Example 12], for which the “% degradation” value in data set [1] amounted to 12%. In addition, the IC50 in data set [2] was 274 nM.
In the case of `Nc1ncc(-c2cc(N3C(=O)O[C@@H](c4ccc(OCCO)cc4)[C@@H]3CO)nc(N3CCOCC3)n2)c(C(F)(F)F)n1` [Example 13], the “% degradation” value in data set [1] is on record as 4%. The IC50 stood at 1070 nM in data set [2] and 11 nM at human PI3Kβ.
`Nc1ncc(-c2cc(N3C(=O)O[C@@H](c4ccc(OCCCO)cc4)[C@@H]3CO)nc(N3CCOCC3)n2)c(C(F)(F)F)n1` [Example 14]: the “% degradation” value in data set [1] came to 8%. Besides, the IC50 in data set [2] worked out at 724 nM.
